Several values for one entry are separate records, joined by “and”; a condition that tells them apart may be missing. Equal values may be shown once.
Molecular target: TEAD2 (Homo sapiens (Human), UniProt Q15562)
Assay: In vitro palmitoylation (TEAD2 autopalmitoylation, streptavidin blot)
Type: biochemical
Conditions: compound at 10 μM
Procedure: Recombinant GST-TEAD2 or His6TEAD2 (500 ng) protein was pre-incubated with the compounds at indicated concentrations for 15 min. and then incubated with 1 μM of alkyne palmitoyl-5 CoA (Cayman Chemical) for 30 min or 50 mM MES, pH 6.4, followed by Click reaction with biotin-azide as previously described (Zheng, B. et al., J. Am. Chem. Soc., 2013, 135, 7082-7085). Click reaction was performed with 100 μM biotin-azide, 1 mM tris(2-carboxyethyl) phosphine hydrochloride (TCEP), 100 μM tris[(1-benzyl-1H-1,2,3-triazol-4-yl) methyl] amine (TBTA) and 1 mM CuSO4 for 1 h at RT.
The reactions were terminated by the addition of 12 μL of 6×SDS-sample loading buffer (50 mM Tris-HCl, pH 6.8, 6% SDS, 48% Glycerol, 0.03% Bromophenol Blue, 30 mM EDTA, 9% MeSH). Samples were analysed by SDS-PAGE and Western blot was performed by probing with streptavidin HRP and histidine HRP antibodies independently. Bands intensity obtained from streptavidin blot were quantified using BIORAD, Gel doc system and the percentage of inhibition of Tead2 auto palmitoylation is determined by comparing to the DMSO control treated samples.
These compounds were tested for activity in inhibiting TEAD2 palmitoylation in the assay described above.

Chain of TEAD2 (Q15562 whole entry): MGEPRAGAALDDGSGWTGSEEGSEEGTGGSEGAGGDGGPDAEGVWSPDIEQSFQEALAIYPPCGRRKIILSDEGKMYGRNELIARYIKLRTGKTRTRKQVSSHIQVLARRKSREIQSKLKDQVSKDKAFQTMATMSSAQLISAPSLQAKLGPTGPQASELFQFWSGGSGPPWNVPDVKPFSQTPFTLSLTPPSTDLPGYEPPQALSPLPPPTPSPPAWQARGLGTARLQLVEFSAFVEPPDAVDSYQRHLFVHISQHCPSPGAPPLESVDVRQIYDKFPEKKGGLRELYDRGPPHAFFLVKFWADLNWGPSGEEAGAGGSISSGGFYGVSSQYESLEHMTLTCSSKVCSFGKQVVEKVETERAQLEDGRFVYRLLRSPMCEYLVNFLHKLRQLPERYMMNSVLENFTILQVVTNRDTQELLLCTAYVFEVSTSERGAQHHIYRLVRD

`COc1ccc(Nc2ccc(N(C)c3ccc(C(F)(F)F)cc3)nc2)c(C(=O)O)c1` [CP-592] was tested, and the inhibition at 10 µM (Table 3) was 40%.
With `COc1ccc(Nc2ccc(N(C)c3ccc(C4CCC4)cc3)cc2)c(C(=O)O)c1` [CP-556] the inhibition at 10 µM (Table 3) was 61%.
Work on `COc1ccc(Nc2ccc(N(C)c3ccc(C4CCN(C)CC4)cc3)cc2)c(C(=O)O)c1` [CP-582] yielded an inhibition at 10 µM (Table 3) of 0%.
For `O=C(NC12CC3CC(CC(C3)C1)C2)c1ccc(Nc2ccccc2C(=O)O)cc1` [Compound 167], the inhibition at 10 µM (Table 2) was 43%.
Molecule `O=C(O)C1CCCC1Nc1cc(Nc2ccc(C34CC5CC(CC(C5)C3)C4)cc2Cl)cc(C(F)(F)F)c1` (stereo not drawn) [Compound 64] has an inhibition at 10 µM (Table 2) of 0%.
For `O=C(Nc1ccc(C23CC4CC(CC(C4)C2)C3)cc1Cl)c1cccc(Nc2ncccc2C(=O)O)c1` [Compound 241], the inhibition at 10 µM (Table 2) was 100%.
Work on `COc1ccc(Nc2ccc(Oc3ccc(OC(F)(F)F)cc3Cl)nc2)c(C(=O)O)c1` [CP-600] yielded an inhibition at 10 µM (Table 3) of 37%.
`CN(c1ccc(C#Cc2ccc(C34CC5CC(CC(C5)C3)C4)cc2)cc1)c1ccccc1C(=O)O` [Compound 191] gave an inhibition at 10 µM (Table 2) of 85%.
In the case of `O=C(O)c1cccc(Nc2ccc(C(=O)Nc3ccc(C45CC6CC(CC(C6)C4)C5)cc3)cc2)c1` [Compound 185], the “% of inhibition of TEAD2 palmitoylation at 10 μM” value (Table 2) is reported as 66% and 91%.
Molecule `COc1ccc(Nc2ccc(N(C)c3ccc(C4CC5CCC4C5)cc3)cc2C)c(C(=O)O)c1` (stereo not drawn) [CP-577] has an inhibition at 10 µM (Table 3) of 79%.
Work on `Cc1ccc(Nc2ccc(N(C)c3ccc(C4CCCCC4)cc3)cc2C)c(C(=O)O)c1` [CP-631] yielded an inhibition at 10 µM (Table 3) of 81%.
`O=C(O)Cn1ncc2ccc(Nc3ccc(C45CC6CC(CC(C6)C4)C5)cc3Cl)cc21` [Compound 118] was tested, and the inhibition at 10 µM (Table 2) was 78%.
With `Clc1cc(C23CC4CC(CC(C4)C2)C3)ccc1Nc1ccc(Nc2ccccn2)cc1` [Compound 10] the inhibition at 10 µM (Table 2) was 0%.
`CC(C)(C)OC(=O)N(c1cnc(Nc2ccc(C34CC5CC(CC(C5)C3)C4)cc2Cl)cn1)c1ccccc1C(=O)O` [Compound 74] was tested, and the inhibition at 10 µM (Table 2) was 31%.
For `Clc1cc(C23CC4CC(CC(C4)C2)C3)ccc1Nc1ccc(Cn2ccnc2)cc1` [Compound 105], the inhibition at 10 µM (Table 2) was 96%.
`CC(C)N(c1ccc(N(C)c2ccc(C34CC5CC(CC(C5)C3)C4)cc2)cc1)c1ccccc1C(=O)O` [Compound 226] showed an inhibition at 10 µM (Table 2) of 17%.
`O=C(O)c1ccccc1Nc1cc(Nc2ccc(C34CC5CC(CC(C5)C3)C4)cc2)cc(C(F)(F)F)c1` [Compound 26] was tested, and the inhibition at 10 µM (Table 2) was 90%.
With `O=C(CNc1ccc(Nc2ncccc2C(=O)O)cc1)Nc1ccc(C23CC4CC(CC(C4)C2)C3)cc1` [Compound 181] the “% of inhibition of TEAD2 palmitoylation at 10 μM” value (Table 2) was 41% and the inhibition at 10 µM (Table 2) was 49%.
For `CNC(=O)c1cc(OC)ccc1Nc1ccc(N(C)c2ccc(C(F)(F)F)cc2)cc1` [compound 430], the inhibition at 10 µM (Table 2) was 63%.
With `Cn1c(-c2ccc(Nc3ccc(C45CC6CC(CC(C6)C4)C5)cc3)cc2)nc2c(C(=O)O)cccc21` [Compound 199] the inhibition at 10 µM (Table 2) was 6%.
With `O=C(O)c1ccccc1Nc1ccc(Nc2ccc(-c3ccccc3Cl)cc2Cl)cc1` [Compound 58] the inhibition at 10 µM (Table 2) was 60%.
Work on `Cc1cc(N(C)c2ccc(OCC(F)(F)F)cc2)ccc1Nc1cccc(C(=O)O)n1` [CP-646] yielded an inhibition at 10 µM (Table 3) of 39%.
`O=C(Nc1ccc(C23CC4CC(CC(C4)C2)C3)cc1)c1ccc(Oc2ccccc2C(=O)O)cc1` [Compound 215] gave an inhibition at 10 µM (Table 2) of 87%.
Molecule `Cc1cc(C(=O)Nc2ccc(C3CCCCC3)cc2)ccc1Nc1cccc(C(=O)O)n1` [CP-642] has an inhibition at 10 µM (Table 3) of 55%.
`COC(=O)c1ccccc1Nc1ccc(C(=O)Nc2ccc(C34CC5CC(CC(C5)C3)C4)cc2)cc1` [Compound 4] was tested, and the inhibition at 10 µM (Table 2) was 0%.
`COc1ccc(Nc2ccc(N(C)c3cc(C4CCCCC4)nn3C)cc2)c(C(=O)O)c1` [CP-618] gave an inhibition at 10 µM (Table 3) of 31%.
`O=C(O)c1cccnc1Nc1cccc(Nc2ccc(C3CCCCC3)cc2Cl)c1` [CP-677] showed an inhibition at 10 µM (Table 3) of 96%.
`O=C(O)c1cccnc1Nc1cccc(Nc2cccc(C34CC5CC(CC(C5)C3)C4)c2)c1` [Compound 111] was tested, and the inhibition at 10 µM (Table 2) was 80%.
Molecule `CN(C(=O)c1ccc(N(C)c2ccccc2C(=O)O)cc1)c1ccc(C23CC4CC(CC(C4)C2)C3)cc1` [Compound 149] has an inhibition at 10 µM (Table 2) of 40%.
